Columns and labels:
Plasma kallikrein = Plasma kallikrein (Homo sapiens, UniProt P03952); assay: (§1) Determination of the IC50 for Plasma Kallikrein: Plasma kallikrein inhibitory activity in vitro was determined using standard published methods (see e.g. Johansen et al., Int. J. Tiss. Reac. 1986, 8, 185; Shori et al., Biochem. Pharmacol., 1992, 43, 1209; Sturzebecher et al., Biol. Chem. Hoppe-Seyler, 1992, 373, 1025). Human plasma kallikrein (Protogen) was incubated at 25° C. with the fluorogenic substrate H-DPro-Phe-Arg-AFC and various concentrations of the test compound. Residual enzyme activity (initial rate of reaction) was determined by measuring the change in optical absorbance at 410 nm and the IC50 value for the test compound was determined.
Sequence of Plasma kallikrein (P03952 20-390 limits assumed): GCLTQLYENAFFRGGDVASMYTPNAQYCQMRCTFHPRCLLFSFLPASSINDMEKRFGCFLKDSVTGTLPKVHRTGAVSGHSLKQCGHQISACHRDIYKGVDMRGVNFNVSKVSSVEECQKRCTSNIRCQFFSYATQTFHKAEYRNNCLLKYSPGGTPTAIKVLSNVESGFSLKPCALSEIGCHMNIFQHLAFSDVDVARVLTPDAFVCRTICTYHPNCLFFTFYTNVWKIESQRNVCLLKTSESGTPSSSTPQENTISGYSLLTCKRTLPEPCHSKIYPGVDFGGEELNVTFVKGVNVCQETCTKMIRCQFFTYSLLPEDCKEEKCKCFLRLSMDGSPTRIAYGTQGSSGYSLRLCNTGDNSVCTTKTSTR
Sequence of Plasma kallikrein (P03952 391-638 limits assumed): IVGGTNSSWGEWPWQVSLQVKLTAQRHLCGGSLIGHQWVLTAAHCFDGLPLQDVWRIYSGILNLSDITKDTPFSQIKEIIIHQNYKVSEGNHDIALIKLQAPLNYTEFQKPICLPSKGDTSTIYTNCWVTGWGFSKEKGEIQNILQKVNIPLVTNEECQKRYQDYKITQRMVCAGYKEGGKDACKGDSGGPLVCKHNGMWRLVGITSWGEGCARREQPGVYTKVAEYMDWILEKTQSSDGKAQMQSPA

Kallikrein-1 = Kallikrein-1 (Homo sapiens, UniProt P06870); assay: as §1, with “KLK1: KLK1” for “Plasma Kallikrein: Plasma kallikrein”, “KLK1 (Callbiochem)” for “plasma kallikrein (Protogen)”, “H-DVal-Leu-Arg-AFC” for “H-DPro-Phe-Arg-AFC”
Sequence of Kallikrein-1 (P06870 whole entry): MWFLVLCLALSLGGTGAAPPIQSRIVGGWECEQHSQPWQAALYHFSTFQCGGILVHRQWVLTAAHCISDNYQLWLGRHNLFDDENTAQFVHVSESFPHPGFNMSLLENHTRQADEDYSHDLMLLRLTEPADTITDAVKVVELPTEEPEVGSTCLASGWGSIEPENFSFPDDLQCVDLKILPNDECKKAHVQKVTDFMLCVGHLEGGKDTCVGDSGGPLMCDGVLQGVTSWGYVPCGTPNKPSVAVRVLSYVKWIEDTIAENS

Coagulation factor XI = Coagulation factor XI (Homo sapiens, UniProt P03951); assay: Determination of the % Inhibition for FXIa: FXIa inhibitory activity in vitro was determined using standard published methods (see e.g. Johansen et al., Int. J. Tiss. Reac. 1986, 8, 185; Shori et al., Biochem. Pharmacol., 1992, 43, 1209; Sturzebecher et al., Biol. Chem. Hoppe-Seyler, 1992, 373, 1025). Human FXIa (Enzyme Research Laboratories) was incubated at 25° C. with the fluorogenic substrate Z-Gly-Pro-Arg-AFC and 40 μM of the test compound (or alternatively at various concentrations of the test compound in order to determine IC50). Residual enzyme activity (initial rate of reaction) was determined by measuring the change in optical absorbance at 410 nm and the IC50 value for the test compound was determined.
Sequence of Coagulation factor XI (P03951 19-387 limits assumed): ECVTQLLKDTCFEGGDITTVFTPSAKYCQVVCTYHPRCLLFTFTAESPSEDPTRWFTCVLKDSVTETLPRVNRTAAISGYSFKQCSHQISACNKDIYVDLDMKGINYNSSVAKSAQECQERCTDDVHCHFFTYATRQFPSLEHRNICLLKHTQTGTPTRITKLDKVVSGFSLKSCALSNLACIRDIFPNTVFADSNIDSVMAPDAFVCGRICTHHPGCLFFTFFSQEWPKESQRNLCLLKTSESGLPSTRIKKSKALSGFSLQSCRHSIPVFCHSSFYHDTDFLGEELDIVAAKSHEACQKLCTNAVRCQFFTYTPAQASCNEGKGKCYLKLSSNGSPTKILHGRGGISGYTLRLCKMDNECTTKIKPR
Sequence of Coagulation factor XI (P03951 388-625 limits assumed): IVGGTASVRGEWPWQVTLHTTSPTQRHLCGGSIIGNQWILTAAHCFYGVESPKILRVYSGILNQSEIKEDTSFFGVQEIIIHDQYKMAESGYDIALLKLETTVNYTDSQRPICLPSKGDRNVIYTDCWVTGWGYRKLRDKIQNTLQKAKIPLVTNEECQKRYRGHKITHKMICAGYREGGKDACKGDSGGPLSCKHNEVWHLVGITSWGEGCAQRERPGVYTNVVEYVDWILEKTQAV

IC50 (Plasma kallikrein) [µM] | IC50 (Kallikrein-1) [µM] | IC50 (Coagulation factor XI) [µM] | Structure (SMILES)
< 0.01 | > 40 | > 40 | COCc1nn(Cc2ccc3c(c2)CN(C(C)C)C3)cc1C(=O)NCc1c(-n2cc(C)nn2)ccc(OC)c1F
< 0.01 | > 40 | 0.97 | COCc1nn(Cc2cnc(N3CCCC3)nc2)cc1C(=O)NCc1c(-n2ccnn2)ccc(OC)c1F
< 0.01 | > 40 | 1.84 | COCc1nn(Cc2cnc(N3CCCC3)nc2)cc1C(=O)NCc1c(-n2cc(C)nn2)ccc(OC)c1F
